In BindingDB's records for doi:10.1021/jm00098a008 (University of Minnesota, 1992):
pIC50: −log10 of the molar value.

Target: Alcohol dehydrogenase 1 (Saccharomyces cerevisiae) (UniProt P00330)
Experiment: Inhibitory activity against yeast alcohol dehydrogenase

Alcohol dehydrogenase 1 (Saccharomyces cerevisiae), sequence (P00330 whole entry, looked up): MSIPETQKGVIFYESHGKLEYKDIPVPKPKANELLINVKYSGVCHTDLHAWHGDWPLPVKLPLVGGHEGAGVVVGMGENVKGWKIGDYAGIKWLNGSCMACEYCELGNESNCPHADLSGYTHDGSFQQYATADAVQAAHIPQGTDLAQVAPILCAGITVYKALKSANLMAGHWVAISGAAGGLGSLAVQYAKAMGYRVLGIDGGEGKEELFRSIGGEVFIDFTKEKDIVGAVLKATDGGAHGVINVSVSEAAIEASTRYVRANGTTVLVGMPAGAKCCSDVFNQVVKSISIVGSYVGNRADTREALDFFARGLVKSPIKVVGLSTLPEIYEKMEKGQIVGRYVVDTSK

pIC50	SMILES
4.60	N#CN(OC(=O)c1ccccc1)C(=O)c1ccccc1
4.41	CC(=O)ON(C(C)=O)S(=O)(=O)c1ccc(Cl)cc1
